What all share (assay type): cell-based, mouse
For experiment [1], the system named is NIH3T3 cells. The experiment can be described thus: Proliferation of skin cells (SRB staining, survival rate of NIH3T3 cells). Particulars: 50 μM or 100 μM peptide, 72 hours, serum-free DMEM, SRB absorbance at 560 nm, FIG. 1. On the procedure:
In this example, the aim was to confirm the effect of a peptide according to an example on proliferation of skin cells, by evaluating changes in survival rate of NIH3T3 cells, which are mouse fibroblasts.
Specifically, NIH3T3 cells were seeded in a […] at a density of 5×10^3 cells/well and cultured for 24 hours. The cells were then washed once with serum-free DMEM media, and the culture medium was replaced with serum-free DMEM media. Then, 50 μM or 100 μM of the peptide consisting of the amino acid sequence of SEQ ID NO: 1 was dispensed into the medium, and cultured in a CO2 incubator at 37° C. for 72 hours. The culture was then washed twice with PBS and treated with 4% paraformaldehyde (PFA) solution for 15 minutes to fix the cultured cells. The culture was then washed twice with distilled water, treated with SRB solution for 1 hour to stain the cells, washed with 1% acetic acid solution, and dried. The dried culture was then dissolved in 20 mM Tris buffer solution and the absorbance at 560 nm was measured using a microplate reader (Molecular Devices, USA). In this example, the untreated group was used as the control group, and the group to which insulin-like growth factor was added (IGF) was used as the positive control group.
(The SRB assay estimates cell density from bound dye.)

The next experiment has as its system fibronectin. The experiment is described as follows: Expression of extracellular matrix constituent factor fibronectin (RT-PCR) in NIH3T3 cells. Particulars: 50 μM or 100 μM peptide, 24 hours, FIG. 2 and FIG. 3. On the procedure: (§1) In this example, the aim was to confirm the effect of the peptide according to an example on improving endogenous skin aging, including improvement of wrinkles and enhancement of elasticity, etc., by evaluating the expression levels of collagen type 1 (Col1a1), fibronectin, or elastin, which are known components of the dermis.
(§2) Specifically, NIH3T3 cells were seeded in a 6-well plate at a density of 3×10^5 cells/well and cultured for 24 hours. The cells were then washed once with serum-free DMEM media, and the culture medium was replaced with serum-free DMEM media. Thereafter, 50 μM or 100 μM of the peptide consisting of the amino acid sequence of SEQ ID NO: 1 was dispensed into the medium, and cultured in a CO2 incubator at 37° C. for 24 hours. The culture was then washed twice with PBS, and RNA was isolated from the culture using easy blue (iNtRON, Korea). Using an RT kit (Enzynomics, Korea), 1 μg of the isolated RNA was reverse transcribed to synthesize the respective cDNA. Polymerase chain reaction (PCR) was then performed using the cDNAs and primers Col1a1, fibronectin, and elastin. Meanwhile, the untreated group was used as the control group, and the group to which TGF-β1 was added (TGF-β1) was used as the positive control group, the nucleotide sequences of the primers used in this example are shown in Table 2 below.

The test system of experiment [2] is NIH3T3 cells. The experiment can be described thus: Inhibition of apoptosis of skin cells induced by ultraviolet rays (SRB survival rate). Particulars: 50 μM or 100 μM peptide, 6 J/cm2 ultraviolet rays, 72 hours, FIG. 4. Here is the method: In this example, the aim was to confirm the effect of the peptide according to an example on the inhibition of apoptosis or cell recovery of skin cells induced by ultraviolet rays, by evaluating the change in survival rate of skin cells whose apoptosis was induced by ultraviolet irradiation.
Specifically, NIH3T3 cells were seeded in a […] at a density of 1×10^4 cells/well and cultured for 24 hours. The cells were then washed once with serum-free DMEM media, the culture medium was replaced with serum-free DMEM media, and 50 μM or 100 μM of the peptide consisting of the amino acid sequence of SEQ ID NO: 1 was dispensed to the culture medium. The culture medium dispensed with the peptide was cultured in a CO2 incubator at 37° C. for 1 hour, transferred to an e-tube, mixed with 100 ul of PBS, and dispensed into a well plate. Afterwards, using a UV irradiator (VILBER LOURMAT, France), 6 J/cm2 ultraviolet rays were irradiated to NIH3T3 cells. The PBS in the well plate was then removed, 900 μL of the culture medium in which the peptides were dispensed was added, and the plate was cultured in a CO2 incubator at 37° C. for 72 hours. […] The dried culture was then dissolved in 20 mM Tris buffer solution and the absorbance at 560 nm was measured using a microplate reader (Molecular Devices, USA). […]

A further experiment deals with collagen type 1 (Col1a1). The experiment can be described thus: Expression of extracellular matrix constituent factor Col1a1 (RT-PCR) in NIH3T3 cells. Particulars: 50 μM or 100 μM peptide, 24 hours, FIG. 2 and FIG. 3. Here is the method: as §1, §2
Experiment [3] has as its system NIH3T3 cells. The experiment is described as follows: Antioxidant effect on skin cells induced by ultraviolet rays (reactive oxygen species, DCF-DA, FACS). Particulars: 50 μM or 100 μM peptide, 6 J/cm2 ultraviolet rays, 24 hours, FL1 fluorescence by flow cytometry, FIG. 5. Here is the method: In this example, the aim was to confirm the effect of the peptide according to an embodiment on the antioxidant effect of skin cells induced by ultraviolet rays, by evaluating the level of reactive oxygen species in skin cells increased by ultraviolet irradiation.
Specifically, NIH3T3 cells were seeded in a 6-well plate at a density of 5×10^5 cells/well and cultured for 24 hours. The cells were then washed once with serum-free DMEM media, the culture medium was replaced with serum-free DMEM media, and 50 μM or 100 μM of the peptide consisting of the amino acid sequence of SEQ ID NO: 1 was dispensed to the culture medium. The culture medium dispensed with the peptide was cultured in a CO2 incubator at 37° C. for 1 hour, transferred to an e-tube, mixed with 100 ul of PBS, and dispensed into a well plate. Afterwards, using a UV irradiator (VILBER LOURMAT, France), 6 J/cm2 ultraviolet rays were irradiated to NIH3T3 cells. The PBS in the well plate was then removed, 900 μL of the culture medium in which the peptides were dispensed was added, and the plate was cultured in a CO2 incubator at 37° C. for 24 hours. The culture was then treated with DCFG-DA (2′,7′-dichlorofluorescin diacetate), wrapped in foil, and cultured in a CO2 incubator at 37° C. for 30 minutes. […] After washing the centrifuged cells with PBS, FL1 fluorescence values were measured through flow cytometry (FACS, BD, USA). […]

The subject of another experiment is elastin. The experiment can be described thus: Expression of extracellular matrix constituent factor elastin (RT-PCR) in NIH3T3 cells. Particulars: 50 μM or 100 μM peptide, 24 hours, FIG. 2 and FIG. 3. On the procedure: as §1, §2

For the sequence SHNFREEPEMRR (Peptide 1) [SEQ ID NO: 1], the proliferation of fibroblasts result with NIH3T3 cells [1] was “promoted”. For the same sequence, the expression of fibronectin result in the experiment with fibronectin is “increased”. Further, the “cell survival rate of fibroblasts reduced by ultraviolet irradiation” value with NIH3T3 cells [2] is reported as “restored”. For the same sequence, the “expression of Col1a1” value in the experiment with collagen type 1 (Col1a1) was “increased”. The “level of reactive oxygen species in fibroblasts increased by ultraviolet irradiation” value in the experiment on NIH3T3 cells [3] is given as “reduced”. Moreover, the expression of elastin result with elastin was “increased”.

(Values after US20250295570A1, “PEPTIDE HAVING ACTIVITY OF IMPROVING STATE OF SKIN, AND USE THEREOF” (CAREGEN CO., LTD., priority 2021, published 2025).)
